According to ChEMBL document CHEMBL1149339, “Vasorelaxant activity of cyclic peptide, cyclosquamosin B, from Annona squamosa” (Bioorg Med Chem Lett, 2006):
The source made the active and inactive calls.

Experiments:
Assay type in all cases: functional, organism-based
Rattus norvegicus [1] = species: Rattus norvegicus; test: Vasorelaxant activity against norepinephrine-induced contraction of rat thoracic aortic ring with endothelium; details: Aorta
Rattus norvegicus [2] = species: Rattus norvegicus; test: Vasorelaxant activity against norepinephrine-induced contraction of rat thoracic aortic ring without endothelium; details: Aorta
Rattus norvegicus [3] = species: Rattus norvegicus; test: Inhibition of potassium ion depolarized calcium-induced contraction of rat aorta mediated by voltage dependent calcium channel at 10 uM
Rattus norvegicus [4] = species: Rattus norvegicus; test: Inhibition of norepinephrine-induced contraction in rat aorta mediated by receptor operated calcium channel in presence of nicardipine at 10 uM

Measured: Activity

CC[C@@H](C)[C@@H]1NC(=O)[C@@H]2CCCN2C(=O)[C@@H]2CCCN2C(=O)[C@H](CCC(N)=O)NC(=O)[C@H](CCSC)NC(=O)[C@H](CC(C)C)NC(=O)CN(C)C(=O)[C@H]([C@H](C)O)NC1=O
active: all assays above
